In ChEMBL document CHEMBL1131554, “10-omega-phenylalkyl-9(10H)-anthracenones as inhibitors of keratinocyte growth with reduced membrane damaging properties” (Bioorg Med Chem Lett, 1998):

Tests used:
[1] = Partition coefficient (logP); type: physicochemical; settings: octanol/water
[2] = In vitro for antiproliferate activity against HaCaT cells; type: functional, cell-based; settings: Homo sapiens
[3] = Deoxyribose degradation as a measure of hydroxyl-radical generation.; type: functional
[4] = Compound was measured for lactate dehydrogenase (LDH) release in HaCaT cells after treatment with 2 uM; type: functional, Homo sapiens

Structure (SMILES) | logP [1] | IC50 [2] | Activity (uM of MDA (mM of deoxyribose)-1) [3] | LDH [4]
O=C1c2c(O)cccc2C(Cc2ccc([N+](=O)[O-])cc2)c2cccc(O)c21 | 4.16 | < 5 µM | < 0.2 | 142 MU
COc1ccc(CCC2c3cccc(O)c3C(=O)c3c(O)cccc32)cc1OC | 4.55 | 3 µM | < 0.2 | 
COc1ccc(CC2c3cccc(O)c3C(=O)c3c(O)cccc32)cc1 | 4.45 | > 5 µM | < 0.2 | 152 MU
O=C1c2c(O)cccc2C(Cc2ccccc2)c2cccc(O)c21 |  | > 5 µM | 0.35 | 150 MU
O=C1c2c(O)cccc2C(Cc2ccncc2)c2cccc(O)c21 | 3.47 | 1.8 µM | 1.25 | 179 MU
O=C1c2c(O)cccc2C(CCc2cc(O)c(O)c(O)c2)c2cccc(O)c21 | 3.09 | > 5 µM | 2.3 | 225 MU
COc1cc(CCC2c3cccc(O)c3C(=O)c3c(O)cccc32)cc(OC)c1OC | 4.37 | 4.1 µM | 0.97 | 
O=C1c2c(O)cccc2Cc2cccc(O)c21 [ANTHRALIN] |  | 0.7 µM |  | 294 MU
COc1ccc(CC(=O)C2c3cccc(O)c3C(=O)c3c(O)cccc32)cc1 | 4.2 | 1.1 µM | < 0.2 | 143 MU

Now from value to compound, other results behind:

logP [1] | Structure (SMILES) | IC50 [2] | Activity (uM of MDA (mM of deoxyribose)-1) [3] | LDH [4]
5.72 | O=C1c2c(O)cccc2C(CCCCc2ccccc2)c2cccc(O)c21 | < 5 µM | < 0.2 | 
5.51 | O=C1c2c(O)cccc2C(CCCc2ccccc2)c2cccc(O)c21 | > 5 µM | < 0.2 | 130 MU
4.1 | O=C1c2c(O)cccc2C(CCc2ccc(O)cc2)c2cccc(O)c21 | 3.8 µM | 0.4 | 136 MU
5.27 | O=C1c2c(O)cccc2C(CCc2ccccc2)c2cccc(O)c21 | < 5 µM | < 0.2 | 
5.07 | COc1ccc(CCC2c3cccc(O)c3C(=O)c3c(O)cccc32)cc1 | 0.9 µM | < 0.2 | 129 MU
3.65 | O=C1c2c(O)cccc2C(CCc2ccc(O)c(O)c2)c2cccc(O)c21 | > 5 µM | 0.56 | 
